Laboratory results: ChEMBL document CHEMBL1201862, “PubChem BioAssay data set” (2004)
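Step 1: Grow cells in 96-well plates. Step 2: Expose to compound for 48 hours at 5 concentrations. Step 3: Interpolate endpoints linearly; if unreached, use highest concentration. At the GI50, growth is halved.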 Active and inactive are the calls of the source. No stated cut-off is given here; in the data, active = GI50 up to about 1.1 µM and inactive = higher.

Experiments:
Test in all cases: growth of human tumour cells (NCI), 48 h
ACHN = tested on: ACHN
CCRF-CEM = tested on: CCRF-CEM
COLO 205 = tested on: COLO 205
EKVX = tested on: EKVX
HL-60 = tested on: HL-60
K562 = tested on: K562
KM12 = tested on: KM12
MOLT-4 = tested on: MOLT-4
NCI-H226 = tested on: NCI-H226
NCI-H522 = tested on: NCI-H522
OVCAR-4 = tested on: OVCAR-4
RPMI-8226 = tested on: RPMI-8226
SK-MEL-2 = tested on: SK-MEL-2
SNB-19 = tested on: SNB-19
SNB-75 = tested on: SNB-75
SW-620 = tested on: SW-620
UACC-62 = tested on: UACC-62
786-0 = tested on: 786-0
Malme-3M = tested on: Malme-3M

Measured: GI50

CC1CC(c2ccccc2)=Nc2ccccc2S1 (stereo not given)
inactive: ACHN > 100 µM | CCRF-CEM 34.7 µM | COLO 205 > 100 µM | EKVX 72.8 µM | HL-60 58.9 µM | K562 79.4 µM | KM12 > 100 µM | MOLT-4 77.8 µM | NCI-H226 > 100 µM | NCI-H522 41.9 µM | OVCAR-4 > 100 µM | RPMI-8226 68.5 µM | SK-MEL-2 > 100 µM | SNB-19 > 100 µM | SNB-75 > 100 µM | SW-620 > 100 µM | UACC-62 > 100 µM

COc1ccc(NC(=O)C(=O)NNC(=O)c2sc(NNC(C)=O)nc2C)c([N+](=O)[O-])c1
inactive: 786-0 > 100 µM | ACHN 45.5 µM | CCRF-CEM 24.2 µM | COLO 205 > 100 µM | EKVX > 100 µM | HL-60 42.7 µM | K562 37.1 µM | KM12 > 100 µM | MOLT-4 36 µM | Malme-3M > 100 µM | NCI-H226 > 100 µM | NCI-H522 30.1 µM | OVCAR-4 51.5 µM | RPMI-8226 65.9 µM | SK-MEL-2 > 100 µM | SNB-19 > 100 µM | SW-620 35.6 µM | UACC-62 82.6 µM

CCOC(=O)c1sc2nc(SC)nc(N3CCCCC3)c2c1N
inactive: 786-0 > 100 µM | ACHN > 100 µM | COLO 205 > 100 µM | K562 > 100 µM | KM12 > 100 µM | MOLT-4 > 100 µM | Malme-3M > 100 µM | NCI-H226 > 100 µM | NCI-H522 > 100 µM | OVCAR-4 > 100 µM | RPMI-8226 > 100 µM | SK-MEL-2 > 100 µM | SNB-19 > 100 µM | SNB-75 > 100 µM | SW-620 > 100 µM | UACC-62 > 100 µM

O=C(Nc1ccc(Cl)c(Cl)c1)C(=O)C(C(=O)c1ccccc1F)C1OC(=O)c2ccccc21 (stereo not given)
inactive: ACHN 31.9 µM | CCRF-CEM 13.8 µM | COLO 205 16.1 µM | EKVX 22.4 µM | HL-60 14.1 µM | K562 22 µM | KM12 20 µM | MOLT-4 29.6 µM | NCI-H226 17.9 µM | NCI-H522 12.6 µM | OVCAR-4 22.3 µM | RPMI-8226 18.2 µM | SK-MEL-2 12.3 µM | SNB-19 17.5 µM | SNB-75 18.6 µM | SW-620 23.9 µM | UACC-62 14.8 µM

Cc1cc(C)nc(NS(=O)(=O)c2ccc(NC(=O)c3cccc4c(Nc5ccc(S(=O)(=O)Nc6cc(C)on6)cc5)c5ccccc5nc34)cc2)n1
inactive: ACHN 38.6 µM | CCRF-CEM 28.8 µM | EKVX 24.9 µM | HL-60 26.5 µM | K562 28.7 µM | KM12 16.4 µM | MOLT-4 25.4 µM | Malme-3M 18 µM | NCI-H522 16.3 µM | OVCAR-4 23.2 µM | SK-MEL-2 19.5 µM | SNB-19 15.7 µM | SNB-75 23.3 µM | UACC-62 20.3 µM

CCN(CC)CCO[Si](OCCN(CC)CC)(OCCN(CC)CC)OCCN(CC)CC
inactive: COLO 205 > 100 µM | EKVX > 100 µM | KM12 > 100 µM | Malme-3M > 100 µM | NCI-H226 88.5 µM | OVCAR-4 > 100 µM | SK-MEL-2 > 100 µM | SNB-19 > 100 µM | SNB-75 > 100 µM | SW-620 > 100 µM | UACC-62 > 100 µM

Cc1c(OC(C)C(=O)O)ccc2c(-c3ccccc3)cc(=O)oc12 (stereo not given)
inactive: 786-0 > 100 µM | ACHN > 100 µM | CCRF-CEM > 100 µM | COLO 205 > 100 µM | EKVX > 100 µM | HL-60 > 100 µM | K562 > 100 µM | KM12 > 100 µM | MOLT-4 > 100 µM | Malme-3M > 100 µM | NCI-H226 > 100 µM | NCI-H522 > 100 µM | OVCAR-4 > 100 µM | RPMI-8226 > 100 µM | SNB-19 > 100 µM | SNB-75 > 100 µM | SW-620 > 100 µM | UACC-62 > 100 µM

COC(=O)C12C3C4C1C1C2C3C41C(=O)O (stereo not given)
inactive: 786-0 > 100 µM | ACHN > 100 µM | CCRF-CEM > 100 µM | COLO 205 > 100 µM | EKVX > 100 µM | HL-60 > 100 µM | K562 > 100 µM | MOLT-4 > 100 µM | Malme-3M > 100 µM | NCI-H226 > 100 µM | OVCAR-4 > 100 µM | RPMI-8226 > 100 µM | SNB-19 > 100 µM | SW-620 > 100 µM | UACC-62 > 100 µM

CCOC(=O)Cc1cc(OC)c(OC)cc1/C(Cl)=C(\CO)c1ccc(OC)c(OC)c1
inactive: ACHN 81.1 µM | CCRF-CEM > 100 µM | COLO 205 > 100 µM | EKVX > 100 µM | HL-60 > 100 µM | K562 > 100 µM | MOLT-4 > 100 µM | Malme-3M > 100 µM | OVCAR-4 44.4 µM | RPMI-8226 37.5 µM | SNB-19 50.2 µM | SNB-75 23.8 µM | SW-620 > 100 µM | UACC-62 > 100 µM
